Drawing on patent US20240058343A1, “TREATMENT OF URTICARIA USING JAK INHIBITORS” (Incyte Corporation, priority 2022, published 2024), this text covers JAK2/JAK1 and IC50 for 21 compounds.

Bounds are passed on as bounds.

In one assay the target is JAK2 (a.a. 828-1132) (Homo sapiens (Human), UniProt O60674). As to the kind of experiment: In vitro JAK kinase assay (HTRF), JAK2, for JAK2/JAK1 ratio. The format is biochemical. Particulars: IC50 ratio at 1 mM ATP. (In TR-FRET formats the signal depends on donor and acceptor labels being close together.)
Sequence of JAK2 (a.a. 828-1132) (O60674 828-1132): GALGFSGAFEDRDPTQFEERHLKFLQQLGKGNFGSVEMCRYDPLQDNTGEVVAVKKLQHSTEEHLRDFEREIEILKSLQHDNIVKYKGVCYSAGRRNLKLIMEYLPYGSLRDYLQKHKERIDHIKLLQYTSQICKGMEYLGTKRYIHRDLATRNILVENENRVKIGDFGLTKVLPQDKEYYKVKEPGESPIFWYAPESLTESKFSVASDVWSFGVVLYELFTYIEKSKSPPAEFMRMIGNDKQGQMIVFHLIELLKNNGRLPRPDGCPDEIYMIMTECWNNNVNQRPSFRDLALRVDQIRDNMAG
In assay [1] the target is human JAK1 (a.a. 837-1142) (Homo sapiens, UniProt P23458). The assay can be described thus: In vitro JAK kinase assay (HTRF), JAK1. Type of assay: biochemical. Particulars: 1 mM ATP.
Method: (§1) The catalytic activity of JAK1, JAK2 or JAK3 was assayed by measuring the phosphorylation of a biotinylated peptide. The phosphorylated peptide was detected by homogenous time resolved fluorescence (HTRF). IC5os of compounds are measured for each kinase in the 40 microL reactions that contain the enzyme, ATP and 500 nM peptide in 50 mM Tris (pH 7.8) buffer with 100 mM NaCl, 5 mM DTT, and 0.1 mg/mL (0.01%) BSA. […] Reactions are carried out at room temperature for 1 hour and then stopped with 20 μL 45 mM EDTA, 300 nM SA-APC, 6 nM Eu-Py20 in assay buffer (Perkin Elmer, Boston, MA). Binding to the Europium labeled antibody takes place for 40 minutes and HTRF signal was measured on a Fusion plate reader (Perkin Elmer, Boston, MA).

Method for JAK2 (a.a. 828-1132): as §1

Usually IC50 stands for the midpoint of a concentration-inhibition curve. Higher therefore signals a need for much substance. In the case of `N#CC[C@]1(n2cc(-c3ncnc4[nH]ccc34)cn2)C[C@H](N2CCC(Oc3cc(CCO)cc(C(F)(F)F)n3)CC2)C1` [compound 26, {trans-3-(4-{[4-(2-hydroxyethyl)-6-(trifluoromethyl)pyridin-2-yl]oxy}piperidin-1-yl)-1-[4-(7H-pyrrolo[2,3-d]pyrimidin-4-yl)-1H-pyrazol-1-yl]cyclobutyl}acetonitrile], the JAK2/JAK1 at JAK2 (a.a. 828-1132) was over 10. This compound also came in with an IC50 in assay [1] of under 10 nM.

As to `N#CCC1(n2cc(-c3ncnc4[nH]ccc34)cn2)CN([C@H]2CC[C@@H](Oc3cc(CCO)nc(C(F)(F)F)n3)CC2)C1` [compound 18, {1-(cis-4-{[6-(2-hydroxyethyl)-2-(trifluoromethyl)pyrimi-din-4-yl]oxy}cyclohexyl)-3-[4-(7H-pyrrolo[2,3-d]pyrimidin-4-yl)-1H-pyrazol-1-yl]azetidin-3-yl}acetonitrile], the JAK2/JAK1 on JAK2 (a.a. 828-1132) was over 10. This compound gave an IC50 in assay [1] of under 10 nM.

Take `CCNCc1cc(O[C@H]2CC[C@@H](N3CC(CC#N)(n4cc(-c5ncnc6[nH]ccc56)cn4)C3)CC2)nc(C(F)(F)F)c1` [compound 19, {1-(cis-4-{[4-[(ethylamino)methyl]-6-(trifluoromethyl)pyridin-2-yl]oxy}cyclohexyl)-3-[4-(7H-pyrrolo[2,3-d]pyrimidin-4-yl)-1H-pyrazol-1-yl]azetidin-3-yl}acetonitrile]: at JAK2 (a.a. 828-1132), the JAK2/JAK1 is reported as over 10. In assay [1], this compound gave an IC50 of under 10 nM.

As to `N#CC[C@]1(n2cc(-c3ncnc4[nH]ccc34)cn2)C[C@H](N2CCC(Oc3cc(CN4CC(O)C4)cc(C(F)(F)F)n3)CC2)C1` [compound 11, {trans-3-(4-{[4-[(3-hydroxyazetidin-1-yl)methyl]-6-(trifluoromethyl)pyridin-2-yl]oxy}piperidin-1-yl)-1-[4-(7H-pyrrolo[2,3-d]pyrimidin-4-yl)-1H-pyrazol-1-yl]cyclobutyl}acetonitrile], the JAK2/JAK1 at JAK2 (a.a. 828-1132) was over 10. For the same compound, the IC50 in assay [1] was under 10 nM.

On to `N#CCC1(n2cc(-c3ncnc4[nH]ccc34)cn2)CN(C2CCN(C(=O)c3ccnc(C(F)(F)F)n3)CC2)C1` [compound 3, [3-[4-(7H-pyrrolo[2,3-d]pyrimidin-4-yl)-1H-pyrazol-1-yl]-1-(1-{[2-(trifluoromethyl)pyrimi-din-4-yl]carbonyl}piperidin-4-yl)azetidin-3-yl]acetonitrile], for which the JAK2/JAK1 on JAK2 (a.a. 828-1132) is given as over 10. The IC50 in assay [1] is under 10 nM.

Consider `N#CC[C@]1(n2cc(-c3ncnc4[nH]ccc34)cn2)C[C@H](N2CCN(C(=O)c3ccnc(C(F)(F)F)n3)CC2)C1` [compound 10, [trans-1-[4-(7H-pyrrolo[2,3-d]pyrimidin-4-yl)-1H-pyrazol-1-yl]-3-(4-{[2-(trifluoromethyl)pyrimi-din-4-yl]carbonyl}piperazin-1-yl)cyclobutyl]acetonitrile], for which, at JAK2 (a.a. 828-1132), the JAK2/JAK1 is given as over 10. The compound further returned an IC50 in assay [1] of under 10 nM.

For `C[C@@H](CO)NCc1cc(OC2CCN([C@H]3C[C@](CC#N)(n4cc(-c5ncnc6[nH]ccc56)cn4)C3)CC2)nc(C(F)(F)F)c1` [compound 23, {trans-3-(4-{[4-({[(1S)-2-hydroxy-1-methylethyl]amino}meth-yl)-6-(trifluoromethyl)pyridin-2-yl]oxy}piperidin-1-yl)-1-[4-(7H-pyrrolo[2,3-d]pyrimidin-4-yl)-1H-pyrazol-1-yl]cyclobutyl}acetonitrile], at JAK2 (a.a. 828-1132), the JAK2/JAK1 is given as over 10. In assay [1], this compound showed an IC50 of under 10 nM.

As to `C[C@@H](O)c1nc2cnc3ccsc3c2n1[C@H]1CC[C@H](CC#N)OC1` [compound 5, ((2R,5S)-5-{2-[(1R)-1-hydroxyethyl]-1H-imidazo[4,5-d]thieno[3,2-b]pyridin-1-yl}tetrahydro-2H-pyran-2-yl)acetonitrile], the JAK2/JAK1 at JAK2 (a.a. 828-1132) was over 10. The IC50 in assay [1] was under 100 nM.

With `N#CCC(CN1CCN(C(=O)c2ccc(C#N)cc2F)CC1)n1ccc(-c2ncnc3[nH]ccc23)c1` (stereo not drawn) [compound 9, 4-[(4-{3-cyano-2-[3-(7H-pyrrolo[2,3-d]pyrimidin-4-yl)-1H-pyrrol-1-yl]propyl}piperazin-1-yl)carbonyl]-3-fluorobenzonitrile], the JAK2/JAK1 on JAK2 (a.a. 828-1132) is reported as over 10. The compound further registered an IC50 in assay [1] of under 10 nM.

For `CC(C)(O)c1cc(O[C@H]2CC[C@@H](N3CC(CC#N)(n4cc(-c5ncnc6[nH]ccc56)cn4)C3)CC2)nc(C(F)(F)F)c1` [compound 20, {1-(cis-4-{[4-(1-hydroxy-1-methylethyl)-6-(trifluoromethyl)pyridin-2-yl]oxy}cyclohexyl)-3-[4-(7H-pyrrolo[2,3-d]pyrimidin-4-yl)-1H-pyrazol-1-yl]azetidin-3-yl}acetonitrile], the JAK2/JAK1 on JAK2 (a.a. 828-1132) is listed as over 10. The compound also came in with an IC50 in assay [1] of under 10 nM.

Turning to `C[C@H](O)CNCc1cc(OC2CCN([C@H]3C[C@](CC#N)(n4cc(-c5ncnc6[nH]ccc56)cn4)C3)CC2)nc(C(F)(F)F)c1` [compound 25, {trans-3-(4-{[4-({[(2S)-2-hydroxypropyl]amino}methyl)-6-(trifluoromethyl)pyridin-2-yl]oxy}piperidin-1-yl)-1-[4-(7H-pyrrolo[2,3-d]pyrimidin-4-yl)-1H-pyrazol-1-yl]cyclobutyl}acetonitrile], the JAK2/JAK1 on JAK2 (a.a. 828-1132) is over 10. Moreover, the IC50 in assay [1] was under 10 nM.

Take `N#CCC(C1CCN(c2cccc(Cl)n2)C1)n1cc(-c2ncnc3[nH]ccc23)cn1` (single isomer, unassigned) [compound 6, 3-[1-(6-chloropyridin-2-yl)pyrrolidin-3-yl]-3-[4-(7H-pyrrolo[2,3-d]pyrimidin-4-yl)-1H-pyrazol-1-yl]propanenitrile]: the JAK2/JAK1 on JAK2 (a.a. 828-1132) is listed as over 10. This compound displayed an IC50 in assay [1] of under 10 nM.

As to `C[C@@H](O)CNCc1cc(OC2CCN([C@H]3C[C@](CC#N)(n4cc(-c5ncnc6[nH]ccc56)cn4)C3)CC2)nc(C(F)(F)F)c1` [compound 24, {trans-3-(4-{[4-({[(2R)-2-hydroxypropyl]amino}methyl)-6-(trifluoromethyl)pyridin-2-yl]oxy}piperidin-1-yl)-1-[4-(7H-pyrrolo[2,3-d]pyrimidin-4-yl)-1H-pyrazol-1-yl]cyclobutyl}acetonitrile], the JAK2/JAK1 at JAK2 (a.a. 828-1132) is on record as over 10. Moreover, the IC50 in assay [1] was under 10 nM.

In the case of `N#CC[C@]1(n2cc(-c3ncnc4[nH]ccc34)cn2)C[C@H](N2CCC(Oc3cc(CN4CCC[C@@H]4CO)cc(C(F)(F)F)n3)CC2)C1` [compound 13, {trans-3-(4-{[4-{[(2R)-2-(hydroxymethyl)pyrroli-din-1-yl]methyl}-6-(trifluoromethyl)pyridin-2-yl]oxy}piperidin-1-yl)-1-[4-(7H-pyrrolo[2,3-d]pyrimidin-4-yl)-1H-pyrazol-1-yl]cyclobutyl}acetonitrile], the JAK2/JAK1 at JAK2 (a.a. 828-1132) is listed as over 10. Also, the IC50 in assay [1] was under 10 nM.

For the compound `N#CCC1(n2cc(-c3ncnc4[nH]ccc34)cn2)CN([C@H]2CC[C@@H](Oc3cc(CN4CC[C@H](O)C4)cc(C(F)(F)F)n3)CC2)C1` [compound 22, {1-(cis-4-{[4-{[(3S)-3-hydroxypyrrolidin-1-yl]methyl}-6-(trifluoromethyl)pyridin-2-yl]oxy}cyclohexyl)-3-[4-(7H-pyrrolo[2,3-d]pyrimidin-4-yl)-1H-pyrazol-1-yl]azetidin-3-yl}acetonitrile], the JAK2/JAK1 on JAK2 (a.a. 828-1132) is over 10. The compound further displayed an IC50 in assay [1] of under 10 nM.

Consider `N#CCC(C1CCN(c2nc3cccnc3o2)C1)n1cc(-c2ncnc3[nH]ccc23)cn1` (stereo not drawn) [compound 7, 3-(1-[1,3]oxazolo[5,4-b]pyridin-2-ylpyrrolidin-3-yl)-3-[4-(7H-pyrrolo[2,3-d]pyrimidin-4-yl)-1H-pyrazol-1-yl]propanenitrile], for which the JAK2/JAK1 at JAK2 (a.a. 828-1132) is listed as over 10. The IC50 in assay [1] was under 10 nM.

For the compound `N#CCC1(n2cc(-c3ncnc4[nH]ccc34)cn2)CN(C2CCN(C(=O)Nc3ccc(F)cc3C(F)(F)F)CC2)C1` [compound 2, 4-{3-(Cyanomethyl)-3-[4-(7H-pyrrolo[2,3-d]pyrimidin-4-yl)-1H-pyrazol-1-yl]azetidin-1-yl}-N-[4-fluoro-2-(trifluoromethyl)phenyl] piperidine-1-carboxamide], on JAK2 (a.a. 828-1132), the JAK2/JAK1 is over 10. In addition, the IC50 in assay [1] was under 10 nM.

For `N#CC[C@]1(n2cc(-c3ncnc4[nH]ccc34)cn2)C[C@H](N2CCC(Oc3cc(CN4CCC[C@H]4CO)cc(C(F)(F)F)n3)CC2)C1` [compound 12, {trans-3-(4-{[4-{[(2S)-2-(hydroxymethyl)pyrroli-din-1-yl]methyl}-6-(trifluoromethyl)pyridin-2-yl]oxy}piperidin-1-yl)-1-[4-(7H-pyrrolo[2,3-d]pyrimidin-4-yl)-1H-pyrazol-1-yl]cyclobutyl}acetonitrile], on JAK2 (a.a. 828-1132), the JAK2/JAK1 is over 10. This compound also came in with an IC50 in assay [1] of under 10 nM.

On to `N#CCC(CN1CCN(C(=O)c2ccc(C#N)cc2F)CC1)n1cc(-c2ncnc3[nH]ccc23)cn1` (stereo not drawn) [compound 8, 4-[(4-{3-cyano-2-[4-(7H-pyrrolo[2,3-d]pyrimidin-4-yl)-1H-pyrazol-1-yl]propyl}piperazin-1-yl)carbanoyl]-3-fluorobenzonitrile], for which, at JAK2 (a.a. 828-1132), the JAK2/JAK1 is over 10. In addition, in assay [1], the IC50 is under 10 nM.

Regarding `N#CCC1(n2cc(-c3ncnc4[nH]ccc34)cn2)CN([C@H]2CC[C@@H](Oc3cc(CN4CC[C@@H](O)C4)cc(C(F)(F)F)n3)CC2)C1` [compound 21, {1-(cis-4-{[4-{[(3R)-3-hydroxypyrrolidin-1-yl]methyl}-6-(trifluoromethyl)pyridin-2-yl]oxy}cyclohexyl)-3-[4-(7H-pyrrolo[2,3-d]pyrimidin-4-yl)-1H-pyrazol-1-yl]azetidin-3-yl}acetonitrile], on JAK2 (a.a. 828-1132), the JAK2/JAK1 was over 10. In assay [1], this compound came in with an IC50 of under 10 nM.

Take `C[C@H](NC(=O)c1cc(F)c(N2CC(CC#N)(n3cc(-c4ncnc5[nH]ccc45)cn3)C2)cc1F)C(F)(F)F` [compound 16, 4-{3-(cyanomethyl)-3-[4-(7H-pyrrolo[2,3-d]pyrimidin-4-yl)-1H-pyrazol-1-yl]azetidin-1-yl}-2,5-difluoro-N-[(1S)-2,2,2-trifluoro-1-methylethyl)benzamide]: the JAK2/JAK1 at JAK2 (a.a. 828-1132) was over 10. The IC50 in assay [1] was under 10 nM.
